Measured values reported in patent publication US12285431B2, “Treatment of Rb-negative tumors using topoisomerase inhibitors in combination with cyclin dependent kinase 4/6 inhibitors” (G1 Therapeutics, Inc., priority 2014, dated 2025).

How the values were obtained:
[1] = tested on: A2058 (human metastatic melanoma cells, Rb-negative); experiment: Cellular proliferation assay (CellTiter-Glo), A2058; type: cell-based; details: A2058, 144 h, cell viability after six days
Procedure: (§1) Further cellular proliferation assays were conducted using the following cancer cell lines: MCF7 (breast adenocarcinoma—Rb-positive), ZR-75-1 (breast ductal carcinoma—Rb-positive), H69 (human small cell lung cancer—Rb-negative) cells, or A2058 (human metastatic melanoma cells—Rb-negative). These cells were seeded in Costar (Tewksbury, Massachusetts) 3093 96 well tissue culture treated white walled/clear bottom plates. Cells were treated with the compounds of Table 1 as nine point dose response dilution series from 10 uM to 1 nM. Cells were exposed to compounds and then cell viability was determined after either four (H69) or six (MCF7, ZR75-1, A2058) days as indicated using the CellTiter-Glo® luminescent cell viability assay (CTG; Promega, Madison, Wisconsin, United States of America) following the manufacturer's recommendations. Plates were read on BioTek (Winooski, Vermont) Syngergy2 multi-mode plate reader. The Relative Light Units (RLU) were plotted as a result of variable molar concentration and data was analyzed using Graphpad (LaJolla, California) Prism 5 statistical software to determine the EC50 for each compound.

[2] = tested on: H69 (human small cell lung cancer, Rb-negative) cells; experiment: Cellular proliferation assay (CellTiter-Glo), H69; type: cell-based; details: NCI-H69, 96 h, cell viability after four days
Procedure: as §1

[3] = tested on: MCF7 (breast adenocarcinoma, Rb-positive); experiment: Cellular proliferation assay (CellTiter-Glo), MCF7; type: cell-based; details: Homo sapiens, MCF7, 144 h, cell viability after six days
Procedure: as §1

CDK4/CyclinD1 = CDK4/CyclinD1 (Homo sapiens, UniProt P11802); experiment: CDK4/cyclinD1 kinase assay (Nanosyn, Caliper microfluidic kinase detection); type: biochemical; details: Table 2; 12-point dose-response, ATP at Km (200 μM), 10 hr; read-out: CDK4/CycD1 IC50
Chain of CDK4/CyclinD1 (P11802 whole entry, species assumed): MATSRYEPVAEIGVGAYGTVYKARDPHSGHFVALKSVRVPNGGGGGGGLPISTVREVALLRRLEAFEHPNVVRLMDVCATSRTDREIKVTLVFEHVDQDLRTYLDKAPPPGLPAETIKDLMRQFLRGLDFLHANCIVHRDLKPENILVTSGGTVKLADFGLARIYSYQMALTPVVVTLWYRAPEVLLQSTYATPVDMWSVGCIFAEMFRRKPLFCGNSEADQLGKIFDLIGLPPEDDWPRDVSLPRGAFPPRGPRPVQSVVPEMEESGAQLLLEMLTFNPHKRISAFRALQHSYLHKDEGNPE
Chain of CDK4/CyclinD1 (P24385 whole entry partner, species assumed): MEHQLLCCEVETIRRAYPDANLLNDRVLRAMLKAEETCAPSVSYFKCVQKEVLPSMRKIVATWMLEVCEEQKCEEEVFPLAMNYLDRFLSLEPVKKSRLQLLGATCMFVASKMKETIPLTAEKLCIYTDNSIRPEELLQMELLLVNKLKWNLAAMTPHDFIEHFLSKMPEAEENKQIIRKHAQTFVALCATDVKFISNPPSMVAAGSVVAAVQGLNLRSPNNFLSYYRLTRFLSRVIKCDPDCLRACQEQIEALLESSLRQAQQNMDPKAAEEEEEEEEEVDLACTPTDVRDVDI
Procedure: The assays were performed using microfluidic kinase detection technology (Caliper Assay Platform). The compounds were tested in 12-point dose-response format in singlicate at Km for ATP. Phosphoacceptor substrate peptide concentration used was 1 μM for all assays and Staurosporine was used as the reference compound for all assays. Specifics of each assay are as described below:
CDK4/CyclinD1: Enzyme concentration: 1 nM; ATP concentration: 200 μM; Incubation time: 10 hr.

HS68 cells = experiment: G1 arrest (cellular G1 and S-phase) assay, propidium iodide flow cytometry; type: cell-based, human; details: Homo sapiens, Hs68, HS68 cells
Procedure: HS68 cells (human skin fibroblast cell line (Rb-positive)) were stained with propidium iodide staining solution and run on Dako Cyan Flow Cytometer. The fraction of cells in G0-G1 DNA cell cycle versus the fraction in S-phase DNA cell cycle was determined using FlowJo 7.2.2 analysis.
The compounds listed in Table 1 were tested for their ability to arrest HS68 cells at the G1 phase of the cell cycle.

[4] = tested on: ZR-75-1 (breast ductal carcinoma, Rb-positive); experiment: Cellular proliferation assay (CellTiter-Glo), ZR-75-1; type: cell-based; details: Homo sapiens, ZR-75-1, 144 h, cell viability after six days, read-out: ZR75-1 Cellular EC50
Procedure: as §1

Compound | EC50 [1] [nM] | EC50 [2] [nM] | EC50 [3] [nM] | IC50 (CDK4/CyclinD1) [nM] | EC50 (HS68 cells) [nM] | EC50 [4] [nM]
CCC(C)CN1CCN(c2ccc(Nc3ncc4cc5n(c4n3)C3(CCCC3)CNC5=O)nc2)CC1 (stereo not drawn) [AAA] | > 3000 | > 3000 | 320 | 2.3 | – | –
CC1(C)CN(c2ccc(Nc3ncc4cc5n(c4n3)C3(CCCCC3)CNC5=O)nc2)CCN1C1CC1 [BB] | 1640 | 2940 | – | 0.8 | 75 | –
C[C@H]1CN(c2ccc(Nc3ncc4cc5n(c4n3)C3(CCCCC3)CNC5=O)nc2)CCN1CC1CC1 [B] | – | – | 201 | 0.4 | 90 | 245
CC(C)(C)CCN1CCN(c2ccc(Nc3ncc4cc5n(c4n3)C3(CCCC3)CNC5=O)nc2)CC1(C)C [CCC] | – | – | – | 2 | 250 | –
C[C@H](O)CN1CCN(c2ccc(Nc3ncc4cc5n(c4n3)C3(CCCCC3)CNC5=O)nc2)C[C@@H]1C [C] | – | – | 88 | 1.4 | 95 | 73
C[C@@H]1CN(c2ccc(Nc3ncc4cc5n(c4n3)C3(CCCC3)CNC5=O)nc2)C[C@H](C)N1 [DDD] | – | – | – | 9.5 | 350 | –
C[C@@H]1CN(c2ccc(Nc3ncc4cc5n(c4n3)C3(CCCCC3)CNC5=O)nc2)C[C@H](C)N1C [DD] | – | – | – | 1.9 | 100 | –
CC(C)(O)CN1CCN(c2ccc(Nc3ncc4cc5n(c4n3)C3(CCCC3)CNC5=O)nc2)CC1 [EEE] | > 3000 | > 3000 | 453 | – | 250 | –
CC(C)N1CCN(Cc2ccc(Nc3ncc4cc5n(c4n3)C3(CCCCC3)CNC5=O)nc2)CC1 [EE] | – | – | 216 | 3.8 | 125 | 203
CCC(C)CN1CCN(c2ccc(Nc3ncc4cc5n(c4n3)C3(CCCC3)CNC5=O)nc2)CC1 (stereo not drawn) [FFF] | – | – | – | 4.7 | – | –
CCN1[C@H](C)CN(c2ccc(Nc3ncc4cc5n(c4n3)C3(CCCCC3)CNC5=O)nc2)C[C@@H]1C [FF] | – | – | 140 | – | 80 | –
O=C1NCC2(CCCCC2)n2c1cc1cnc(Nc3ccc(N4CCN(C5CCC5)CC4)cn3)nc12 [F] | – | – | – | 1.5 | 175 | –
CC(C)N1CCN(c2ccc(Nc3ncc4cc5n(c4n3)C3(CCCC3)CNC5=O)nc2)CC1C (stereo not drawn) [GGG] | – | – | – | 13.7 | 350 | –
CC1CN(c2ccc(Nc3ncc4cc5n(c4n3)C3(CCCCC3)CNC5=O)nc2)CCN1CCC(C)(C)C (stereo not drawn) [G] | – | – | – | 1.5 | 175 | –
O=C1NCC2(CCCC2)n2c1cc1cnc(Nc3ccc(N4CCC(N5CCCCC5)CC4)cn3)nc12 [HHH] | – | – | – | 6.8 | 250 | –
O=C1NCC2(CCCCC2)n2c1cc1cnc(Nc3ccc(N4CCN(CC5CC5)CC4)cn3)nc12 [HH] | – | – | – | 1.7 | 110 | –
CC(C)N1CCN(c2ccc(Nc3ncc4cc5n(c4n3)C3(CCCC3)CNC5=O)nc2)CC1 [III] | – | – | – | 6 | 250 | –
CCC(C)CN1[C@H](C)CN(c2ccc(Nc3ncc4cc5n(c4n3)C3(CCCC3)CNC5=O)nc2)C[C@@H]1C (stereo partly drawn) [JJJ] | – | – | – | 3.2 | 240 | –
CCN(CC)C1CCN(C(=O)c2ccc(Nc3ncc4cc5n(c4n3)C3(CCCCC3)CNC5=O)nc2)C1 (stereo not drawn) [JJ] | > 3000 | > 3000 | 122 | 1.4 | 90 | –
CC(C)(C)CCN1CCN(c2ccc(Nc3ncc4cc5n(c4n3)C3(CCCC3)CNC5=O)nc2)CC1 [KKK] | – | – | – | 1.3 | 190 | –
C[C@H]1CN(c2ccc(Nc3ncc4cc5n(c4n3)C3(CCCCC3)CNC5=O)nc2)CCN1 [KK] | 1380 | 2420 | 333 | 2.3 | 22 | –
CC1CCN(C2CCN(c3ccc(Nc4ncc5cc6n(c5n4)C4(CCCCC4)CNC6=O)nc3)CC2)C1 (stereo not drawn) [K] | 1790 | > 3000 | 43 | 1 | 28 | –
CCN(CC)C1CCN(c2ccc(Nc3ncc4cc5n(c4n3)C3(CCCC3)CNC5=O)nc2)CC1 [LLL] | – | – | – | 3.2 | 250 | –
O=C1NCC2(CCCCC2)n2c1cc1cnc(Nc3ccc(C(=O)N4CCN(C5CCC5)CC4)cn3)nc12 [LL] | > 3000 | > 3000 | 96 | 2 | 125 | –
CC(C)N1CCN(c2ccc(Nc3ncc4cc5n(c4n3)C3(CCCCC3)CNC5=O)nc2)C[C@H]1C [L] | > 3000 | 2160 | 506 | – | 65 | –

Compound | EC50 [1] [nM] | EC50 [2] [nM] | EC50 [3] [nM] | IC50 (CDK4/CyclinD1) [nM] | EC50 (HS68 cells) [nM] | EC50 [4] [nM]
C[C@H]1CN(c2ccc(Nc3ncc4cc5n(c4n3)C3(CCCCC3)CNC5=O)nc2)CCN1CCC(C)(C)C [M] | – | – | – | – | 100 | –
CC1CN(c2ccc(Nc3ncc4cc5n(c4n3)C3(CCCC3)CNC5=O)nc2)CCN1CC1CC1 (stereo not drawn) [NNN] | – | – | – | 1.4 | 210 | –
C[C@@H]1CN(c2ccc(Nc3ncc4cc5n(c4n3)C3(CCCCC3)CNC5=O)nc2)CCN1C [NN] | – | – | – | 3.7 | 110 | –
O=C1NCC2(CCCC2)n2c1cc1cnc(Nc3ccc(C(=O)N4CCN(CC5CC5)CC4)cn3)nc12 [OOO] | > 3000 | > 3000 | 138 | 2.4 | 200 | –
CC1CN(c2ccc(Nc3ncc4cc5n(c4n3)C3(CCCC3)CNC5=O)nc2)CCN1CCC(C)(C)C (stereo not drawn) [PPP] | – | – | – | – | 275 | –
CC(C)N1CCN(c2ccc(Nc3ncc4cc5n(c4n3)C3(CCCCC3)CNC5=O)nc2)CC1C (stereo not drawn) [PP] | – | – | 164 | 3.1 | 100 | 66
O=C1NCC2(CCCC2)n2c1cc1cnc(Nc3ccc(N4CCNCC4)cn3)nc12 [QQQ] | – | – | – | 10.5 | 500 | –
CCN(CC)C1CCN(c2ccc(Nc3ncc4cc5n(c4n3)C3(CCCCC3)CNC5=O)nc2)C1 (stereo not drawn) [QQ] | > 3000 | > 3000 | – | 4.1 | – | –
CC(C)N1CCN(c2ccc(Nc3ncc4cc5n(c4n3)C3(CCCC3)CNC5=O)nn2)CC1 [RRR] | – | – | – | 2.6 | 400 | –
CCN(CC)C1CCN(C2CCN(c3ccc(Nc4ncc5cc6n(c5n4)C4(CCCCC4)CNC6=O)nc3)CC2)C1 (stereo not drawn) [RR] | 1620 | 2890 | 72 | 1.2 | 90 | –
O=C1NCC2(CCCC2)n2c1cc1cnc(Nc3ccc(N4CCOCC4)nn3)nc12 [SSS] | – | – | – | 2 | 1500 | –
C[C@@H](O)CN1CCN(c2ccc(Nc3ncc4cc5n(c4n3)C3(CCCCC3)CNC5=O)nc2)CC1 [S] | > 3000 | > 3000 | 76 | – | 150 | –
CN(C)C1CCN(c2ccc(Nc3ncc4cc5n(c4n3)C3(CCCC3)CNC5=O)nn2)CC1 [TTT] | – | – | – | 3.4 | 350 | –
CC(C)N1CCN(c2ccc(Nc3ncc4cc5n(c4n3)C3(CCCCC3)CNC5=O)nn2)CC1 [TT] | – | – | – | 0.8 | 75 | –
CC(C)[C@H]1CNC(=O)c2cc3cnc(Nc4ccc(N5CCNCC5)cn4)nc3n21 [UUU] | – | – | – | – | 300 | –
CCC(C)[C@@H]1CNC(=O)c2cc3cnc(Nc4ccc(N5CCNCC5)cn4)nc3n21 (stereo partly drawn) [VVV] | – | – | – | – | 300 | –
C[C@@H](O)CN1CCN(c2ccc(Nc3ncc4cc5n(c4n3)C3(CCCC3)CNC5=O)nc2)C[C@@H]1C [VV] | – | – | – | 3.3 | 200 | –
CC(C)C[C@@H]1CNC(=O)c2cc3cnc(Nc4ccc(N5CCNCC5)cn4)nc3n21 [WWW] | – | – | – | 18.5 | 300 | –
CC1CN(c2ccc(Nc3ncc4cc5n(c4n3)C3(CCCCC3)CNC5=O)nc2)CCN1CC(C)(C)O (stereo not drawn) [W] | > 3000 | > 3000 | 294 | 2.7 | 160 | –
CC(C)C[C@@H]1CNC(=O)c2cc3cnc(Nc4ccc(N5CCN(C)CC5)cn4)nc3n21 [XXX] | – | – | – | 11.4 | 300 | –
C[C@H](O)CN1CCN(c2ccc(Nc3ncc4cc5n(c4n3)C3(CCCC3)CNC5=O)nc2)C[C@H]1C [XX] | – | – | – | 1.3 | 225 | –
O=C1NCC2(CCCCC2)n2c1cc1cnc(Nc3ccc(N4CCC(N5CCC(C(F)(F)F)CC5)CC4)cn3)nc12 [X] | > 3000 | > 3000 | – | 0.9 | 65 | –
O=C1NCC2(CCCCC2)n2c1cc1cnc(Nc3ccc(C(=O)N4CCNCC4)cn3)nc12 [Y] | – | – | – | 2.5 | 350 | –
CN1CCN(c2ccc(Nc3ncc4cc5n(c4n3)C3(CCCC3)CNC5=O)nc2)CC1 [ZZ] | – | – | – | 10.5 | 500 | –
